ChEMBL document CHEMBL5523732, “Structure-Guided Design of Potent Coronavirus Inhibitors with a 2-Pyrrolidone Scaffold: Biochemical, Crystallographic, and Virological Studies” (J Med Chem, 2024)

Columns and labels:
[1] = Inhibition of MERS-CoV 3CLpro using SG-QXL520 as substrate preincubated with compound for 30 mins followed by susbtrate addition and measured after 30 mins by FRET assay; set-up: species or system Middle East respiratory syndrome-related coronavirus
[2] = Cytotoxicity against cat CRFK cells incubated for 72 hrs by CytoTox 96 analysis; type: toxicity, cell-based, Felis catus
[3] = biological target: Replicase polyprotein 1ab (Severe acute respiratory syndrome coronavirus 2, UniProt P0DTD1); test: Inhibition of full length N-terminal his6-tagged SARS-CoV-2 3CL protease using FAM-SAVLQ as substrate preincubated with compound for 30 mins followed by substrate addition and measured after 30 mins by FRET assay
[4] = test system: SARS-CoV-2; test: Antiviral activity against SARS CoV-2 Wuhan-Hu-1 infected in HEK293T cells incubated for 24 hrs; type: functional, organism-based; details: Severe acute respiratory syndrome coronavirus 2, Wuhan-Hu-1, HEK-293T

| Structure (SMILES) | IC50 [1] [nM] | CC50 at 72 h [2] [nM] | IC50 [3] [nM] | EC50 [4] [nM] |
| --- | --- | --- | --- | --- |
| CC(C)C[C@H](NC(=O)OCC1CC(=O)N(CC2CCCCC2)C1)C(=O)N[C@H](C=O)C[C@@H]1CCNC1=O (stereo not given in full) | 50 | > 50000 | 310 | 130 |
| CC(C)C[C@H](NC(=O)OCC1CC(=O)N(CC2CC3CCC2C3)C1)C(=O)N[C@@H](C[C@@H]1CCNC1=O)C(O)S(=O)(=O)O (stereo not given in full) | 70 | > 50000 | 170 | 80 |
| CC(C)C[C@H](NC(=O)OCC1CC(=O)N(CC2CC3C=CC2C3)C1)C(=O)N[C@H](C=O)C[C@@H]1CCNC1=O (stereo not given in full) | 80 | > 50000 | 190 | 280 |
| CC(C)C[C@H](NC(=O)OC[C@@H]1CCC(=O)N1Cc1ccc2c(c1)OC(F)(F)O2)C(=O)N[C@H](C=O)C[C@@H]1CCNC1=O | 50 | > 50000 | 270 | 510 |
| CC(C)C[C@H](NC(=O)OCC1CCN(CC2CCCCC2)C1=O)C(=O)N[C@H](C=O)C[C@@H]1CCNC1=O (stereo not given in full) | 310 | > 50000 | 230 | 20 |
